Here are results for 29 compounds from patent US7671085B2, “Non-steroidal farnesoid X receptor modulators and methods for the use thereof” (The Salk Institute for Biological Studies, priority 2002, dated 2010).

Assay [1] deals with IBABP mRNA in HT29-FXRFL cells. Kind of assay: Northern blot of IBABP mRNA in HT29 stable cell lines. It is filed as cell-based, Human. Here is the method:
HepG2 or HT29-derived cell lines were typically cultured in medium containing superstripped FBS for 24 hr before the addition of a ligand or DMSO (vehicle) for an additional 24-48 hr. Total RNA was isolated using TRIzol reagent and was resolved (10 μg/lane) on a 1% agarose, 2.2 M formaldehyde gel, transferred to a nylon membrane (Hybond N^+; Amersham Biosciences, Inc.), and cross-linked to the membrane with UV light.
cDNA probes were radiolabeled with [α-^32P]dCTP using the highprime labeling kit (Amersham Biosciences, Inc.). Membranes were hybridized using the QuikHyb hybridization solution (Stratagene, La Jolla, Calif.) according to the manufacturer's protocol. Blots were normalized for variations of RNA loading by hybridization to a control probe, either, 18 S ribosomal cDNA, or the ribosomal protein 36B4. The RNA levels were quantitated using a PhosphorImager (ImageQuant software; Molecular Dynamics, Inc., Sunnyvale, Calif.) in addition to being exposed to X-ray film.
Human colon cells HT29 (FXR null until differentiated) were infected with retroviral vectors that expressed either FXR constructs and the puromycin-resistant gene or the puromycin-resistant gene alone. Puromycin resistant cells were isolated and pooled cell populations were propagated that harbored either the vector alone (HT29-BABE), overexpressed FXR full length (HT29-FXRFL), a non-functional FXR truncated at the AF2 region (HT29-FXR-AF2), or a constitutively active FXR that has the VP16 activation domain fused N-terminal of the protein (HT29-VP16-FXR). Confirmation of the successful establishment of the different stable cell lines was established via northern blot analysis of FXR message levels in the cells.
These observations verify the usefulness of this colon cell model system for studying the induction of FXR target genes.
The ability of the novel compounds identified herein to induce IBABP gene expression in this cell system was also examined. Total RNA from HT29 stable cells treated overnight with fexaramine, fexarine and fexarene was probed for IBABP gene expression.

Another assay has as its target T1, FXR (Homo sapiens, UniProt Q96RI1).
T1 construct: using a full length FXR on a natural response element; expressed in transfected cells
T1 sequence (Q96RI1 1-486): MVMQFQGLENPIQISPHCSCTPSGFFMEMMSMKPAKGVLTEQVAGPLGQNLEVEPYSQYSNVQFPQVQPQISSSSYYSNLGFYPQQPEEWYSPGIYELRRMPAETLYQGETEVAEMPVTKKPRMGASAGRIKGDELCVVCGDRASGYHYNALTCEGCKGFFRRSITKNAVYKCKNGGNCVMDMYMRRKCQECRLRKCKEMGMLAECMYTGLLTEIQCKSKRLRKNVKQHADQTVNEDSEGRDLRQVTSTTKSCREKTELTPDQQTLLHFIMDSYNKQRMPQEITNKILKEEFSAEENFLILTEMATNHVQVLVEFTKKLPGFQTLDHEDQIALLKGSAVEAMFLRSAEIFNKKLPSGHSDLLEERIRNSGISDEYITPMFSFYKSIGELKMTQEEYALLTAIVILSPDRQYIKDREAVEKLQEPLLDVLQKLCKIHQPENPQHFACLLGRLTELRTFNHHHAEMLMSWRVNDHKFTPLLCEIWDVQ
The experiment in a line: cell-based FXR transcription assay, FXR responsive promoter linked to luciferase reporter. Particulars: for RE^a: cell-based FXR reporter assay, footnote a not given; for FXR activation, in words: cell-based reporter assay, SAR discussion. The procedure, abridged: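 Cells co-transfected with full-length FXR and a luciferase reporter driven by a natural response element on a minimal promoter. Compound exposure ≈10 μM for 18 h before washing and luciferase read-out, in 384-well format, with CDCA as reference activator. EC50 derived from transcriptional activity.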

Take `C[C@H](CCC(=O)O)[C@H]1CC[C@H]2[C@@H]3[C@H](O)C[C@@H]4C[C@H](O)CC[C@]4(C)[C@H]3CC[C@]12C` [CDCA, chenodeoxycholic acid, reference compound]: the “induction of IBABP mRNA, in words” value is given as “No induction of IBABP mRNA levels” in assay [1] (HT29-BABE or HT29-FXR-AF2 cell lines), “robust concentration dependent induction of IBABP mRNA” in assay [1] (HT29-FXRFL cells) and “super-induced” in assay [1] (HT29-VP16-FXR cells (constitutive expression)). Also, the “concentration for maximal induction of IBABP mRNA” value in assay [1] (HT29-FXRFL cells, overnight treatment) was 100 µM.

For `COC(=O)/C=C/c1cccc(N(Cc2ccc(-c3ccc(C)cc3)cc2)C(=O)C2CCCCC2)c1` [Compound 235], on FXR, the “RE^a” value turned out to be 1.38 and the “FXR activation, in words” value was “excellent activity”.

On to `COC(=O)/C=C/c1cccc(N(Cc2ccc(-c3ccc(C)cc3)cc2)C(=O)C(C)C)c1` [Compound 236], for which, at FXR, the “RE^a” value is on record as 1.48 and the “FXR activation, in words” value is “excellent activity”.

In the case of `COC(=O)/C=C/c1cccc(N(Cc2ccc(-c3ccc(C)cc3)cc2)C(=O)NC(C)C)c1` [Compound 237], the “RE^a” value on FXR was 0.80.

For `COC(=O)/C=C/c1cccc(N(Cc2ccc(-c3cccc(C)c3)cc2)C(=O)C2CCCCC2)c1` [Compound 238], at FXR, the “RE^a” value turned out to be 1.43 and the “FXR activation, in words” value was “excellent activity”.

In the case of `COC(=O)/C=C/c1cccc(N(Cc2ccc(-c3cccc(C)c3)cc2)C(=O)C(C)C)c1` [Compound 239], the “RE^a” value at FXR came out at 1.09.

On to `COC(=O)/C=C/c1cccc(N(Cc2ccc(-c3cccc(C)c3)cc2)C(=O)NC(C)C)c1` [Compound 240], for which, at FXR, the “RE^a” value was determined as 0.53.

For `COC(=O)/C=C/c1cccc(N(Cc2ccc(-c3cc(Cl)ccc3OC)cc2)C(=O)C2CCCCC2)c1` [Compound 241], the “RE^a” value at FXR is on record as 1.16.

Consider `COC(=O)/C=C/c1cccc(N(Cc2ccc(-c3cc(Cl)ccc3OC)cc2)C(=O)C(C)C)c1` [Compound 242], for which the “RE^a” value at FXR was 0.79.

With `COC(=O)/C=C/c1cccc(N(Cc2ccc(-c3cc(Cl)ccc3OC)cc2)C(=O)NC(C)C)c1` [Compound 243], the “RE^a” value on FXR was found to be 0.17.

With `COC(=O)/C=C/c1cccc(N(Cc2ccc(-c3ccc4c(c3)OCO4)cc2)C(=O)C(C)C)c1` [Compound 245], at FXR, the “RE^a” value came out at 1.25 and the “FXR activation, in words” value was “excellent activity”.

For the compound `COC(=O)/C=C/c1cccc(N(Cc2ccc(-c3ccc4c(c3)OCO4)cc2)C(=O)NC(C)C)c1` [Compound 246], at FXR, the “RE^a” value is 1.51 and the “FXR activation, in words” value is reported as “excellent activity”.

Regarding `COC(=O)/C=C/c1cccc(N(Cc2ccc(-c3ccc(F)c(Cl)c3)cc2)C(=O)C2CCCCC2)c1` [Compound 247], on FXR, the “RE^a” value is recorded as 1.87 and the “FXR activation, in words” value is reported as “excellent activity”.

Consider `COC(=O)/C=C/c1cccc(N(Cc2ccc(-c3ccc(F)c(Cl)c3)cc2)C(=O)C(C)C)c1` [Compound 248], for which the “RE^a” value at FXR is listed as 1.64.

`COC(=O)/C=C/c1cccc(N(Cc2ccc(-c3ccc(F)c(Cl)c3)cc2)C(=O)NC(C)C)c1` [Compound 249]: the “RE^a” value at FXR is on record as 0.41.

As to `COC(=O)/C=C/c1cccc(N(Cc2ccc(-c3ccc(OC(F)(F)F)cc3)cc2)C(=O)C2CCCCC2)c1` [Compound 250], at FXR, the “RE^a” value amounted to 1.04.

For the compound `COC(=O)/C=C/c1cccc(N(Cc2ccc(-c3ccc(OC(F)(F)F)cc3)cc2)C(=O)C(C)C)c1` [Compound 251], at FXR, the “RE^a” value amounted to 0.78.

Regarding `COC(=O)/C=C/c1cccc(N(Cc2ccc(-c3ccc(OC(F)(F)F)cc3)cc2)C(=O)NC(C)C)c1` [Compound 252], on FXR, the “RE^a” value came out at 0.21.

For the compound `COC(=O)/C=C/c1cccc(N(Cc2ccc(-c3cccc(OC(F)(F)F)c3)cc2)C(=O)C2CCCCC2)c1` [Compound 253], the “RE^a” value at FXR is given as 0.84.

In the case of `COC(=O)/C=C/c1cccc(N(Cc2ccc(-c3cccc(OC(F)(F)F)c3)cc2)C(=O)C(C)C)c1` [Compound 254], on FXR, the “RE^a” value is reported as 0.69.

For `COC(=O)/C=C/c1cccc(N(Cc2ccc(-c3cccc(OC(F)(F)F)c3)cc2)C(=O)NC(C)C)c1` [Compound 255], at FXR, the “RE^a” value was 0.09.

For `COC(=O)/C=C/c1cccc(N(Cc2ccc(-c3c(OC)cccc3OC)cc2)C(=O)C2CCCCC2)c1` [Compound 256], at FXR, the “RE^a” value is 0.12 and the “FXR activation, in words” value is “excellent activity”.

In the case of `COC(=O)/C=C/c1cccc(N(Cc2ccc(-c3c(OC)cccc3OC)cc2)C(=O)C(C)C)c1` [Compound 257], on FXR, the “RE^a” value amounted to 0.10 and the “FXR activation, in words” value is on record as “excellent activity”.

Regarding `COC(=O)/C=C/c1cccc(N(Cc2ccc(-c3c(OC)cccc3OC)cc2)C(=O)NC(C)C)c1` [Compound 258], the “RE^a” value at FXR was 0.10.

On to `COC(=O)/C=C/c1cccc(N(Cc2ccc(-c3ccc(N(C)C)cc3)cc2)C(=O)C(C)C)c1` [Compound 260], for which, on FXR, the “RE^a” value stood at 1.07 and the “FXR activation, in words” value was “excellent activity”.

Turning to `COC(=O)/C=C/c1cccc(N(Cc2ccc(-c3ccc(N(C)C)cc3)cc2)C(=O)NC(C)C)c1` [Compound 261], on FXR, the “RE^a” value stood at 1.01.

As to `COC(=O)/C=C/c1cccc(N(Cc2ccc(-c3ccc(C(C)(C)C)cc3)cc2)C(=O)C2CCCCC2)c1` [Compound 262], the “RE^a” value on FXR is given as 1.38.

Turning to `COC(=O)/C=C/c1cccc(N(Cc2ccc(-c3ccc(C(C)(C)C)cc3)cc2)C(=O)C(C)C)c1` [Compound 263], the “RE^a” value on FXR is listed as 0.59.

Regarding `COC(=O)/C=C/c1cccc(N(Cc2ccc(-c3ccc(C(C)(C)C)cc3)cc2)C(=O)NC(C)C)c1` [Compound 264], the “RE^a” value on FXR came to 1.02.
